Key:
[1] = system: Herpes simplex Typ 1; test: One-step replication cycle on chick embryo cells; assay type: cell-based; settings: Beispielreihe 2, HEZ
[2] = system: Coxsackie A 9-Virus; test: Antiviral test in vitro; assay type: cell-based
[3] = system: Influenza A/WSN; test: Plaque reduction test on primary HEZ; settings: mean of two experiments
[4] = system: Adeno-Virus Typ 4; test: Antiviral test in vitro; assay type: cell-based
[5] = system: Vesicular-stomatitis Indiana; test: Plaque reduction test on primary HEZ; assay type: cell-based
[6] = system: MDBK (bovine Nierenzellen-Permanentzellinie); test: Cell tolerance, microscopic reading; assay type: cell-based; set-up: key: 0̸: Am 5. Tag der mikroskopischen Ablesung keine morphologischen Veränderungen der Zellen.; ++++: Komplette Veränderungen der Zellschicht in Form von Abrundung, Granulierung und Ablösen der Zellen von der Glaswand.; +++: Analoge Veränderungen bei 3/4 des Zellrasens.; ++: Analoge Veränderungen bei 1/2 des Zellrasens.; +: Analoge Veränderungen bei 1/4 des Zellrasens; settings: MDKB, reading day 5
From the text: 0̸ = Am 5. Tag der mikroskopischen Ablesung keine morphologischen Veränderungen der Zellen. ++++ = Komplette Veränderungen der Zellschicht in Form von Abrundung, Granulierung und Ablösen der Zellen von der Glaswand. +++ = Analoge Veränderungen bei 3/4 des Zellrasens. ++ = Analoge Veränderungen bei 1/2 des Zellrasens. + = Analoge Veränderungen bei 1/4 des Zellrasens.

[7] = system: Vesicular-stomatitis Indiana; test: One-step replication cycle on chick embryo cells; assay type: cell-based; settings: Beispielreihe 2, HEZ
[8] = system: Influenza A/WSN; test: One-step replication cycle on permanent human kidney cell line
[9] = system: Kontaktüberempfindlichkeit vom verzögerten Typ (Effektor-T-Lymphozyten-Aktivität); test: Percutaneous test for contact hypersensitivity after DNFB immunisation; assay type: in vivo, Meerschweinchen (Albino-Koloniezucht); settings: Sensibilisierungsgrad versus control group; 2 mg/kg daily peroral, day +1 to +6; screening values; from 120 stimulatory, below 80 suppressive
From the text: Der Nachweis einer immunregulatorischen Wirksamkeit wurde am Meerschweinchen (Albino-Koloniezucht) und u. a. mit Hilfe folgender Techniken geführt: • Perkutaner Test zum Nachweis einer Kontaktüberempfindlichkeit vom verzögerten Typ (Effektor-T-Lymphozyten-Aktivität), • Takatsy-Test zum Nachweis DNP-spezifischer Serumantikörper (humorale Immunantwort).
Der Nachweis der antiviralen Wirksamkeit erfolgte in vitro an Hühnerembryonalzellen mit Vertretern verschiedener Virusgruppen. 1. Untersuchungen zur immunregulatorischen Wirksamkeit 1.1 Perkutaner Test zum Nachweis einer Kontaktüberempfindlichkeit Die epikutane Applikation von Dinitrofluorbenzol (DNFB) führt beim Meerschweinchen und bei der Maus zur Entwicklung einer verzögerten Überempfindlichkeit, eines Immunstatus, der an die klonale Vermehrung TNP-spezifischer T-Lymphozyten (TDTH-Ly) gebunden ist. Erfolgt nach einer Latenzperiode von mindestens 5 Tagen eine erneute DNFB-Applikation, kommt es zu einer Freisetzung von Lymphokinen durch Reaktion mit den TDTH-Ly dieses Hautbereiches und dadurch zu einer lokal begrenzten Entzündungsreaktion. Sieben Tage nach der Immunisierung mit 1 %igem DNFB wurden die Flanken der Versuchstiere enthaart und durch Aufbringen je eines Tropfens 0,5 %, 0,1 %, 0,05 %, 0,025 % und 0,01 %iger DNFB-Lösung getestet. Die noch positive Konzentration ist dem Grad der Sensibilisierung umgekehrt proportional. Die Testergebnisse ergeben sich aus Stärke und Anzahl der positiven Hautreaktionen, der Stimulierungsindex (SI) aus dem Vergleich der Test- und Kontrolltiere. Die Substanzbehandlung erfolgte peroral. Mittels Schlundsonde wurde eine tägliche Dosis von 2 mg/kg Körpermasse als Suspension in Wasser gegeben. Behandlungsdauer: 1 Tag + 1 (ein Tag nach der Immunisierung) bis +6. Die Kontrolltiere erhielten nur die eingesetzte Lactose. 1.2 Takatsy-Test Nach Immunisierung mit Dinitrofluorbenzol (DNFB) kommt es beim Meerschweinchen auch zur Bildung DNP-spezifischer humoraler Antikörper, die bevorzugt der IgG1-Substanzklasse angehören. 14 Tage nach primärer epikutaner Applikation von DNFB wurde den Versuchstieren Blut durch Herzpunktion entnommen. Die Bestimmung der Antikörperkonzentration erfolgte nach einer von Takatsy beschriebenen Methode (Takatsy, G.: A new method for the preparation of serial dilutions in a quick and accurate way. Kiserletes Orvostudomany 2 (1950) 263 - 396). Als Indikatorzellen wurden TNP-beladene Schaferythrozyten verwendet (Kopplung nach Rittenberg und Pratt; Rittenberg, M. B. and Pratt, K. L.: Antitrinitrophenyl (TNP) plaque assay. Primary response of BALB/c mice to soluble and particulate immunogen. Proc. Soc. exp. Biol. Med., 132 (1969) 575 - 579). 1.3 Ergebnisse Sensibilisierungsgrad (%) und Serumantikörperkonzentration (AK-Titer-Differenz) gegenüber der jeweiligen Kontrollgruppe (Screening-Werte)
Aus den Werten wird deutlich, daß die Verbindungen der allgemeinen Formel I einen gut nachweisbaren Effekt auf die Effektor-T-Lymphozyten-abhängige verzögerte Uberempfindlichkeit haben. Kontaktdermatitis-Werte ab 120 (≙ 20 % Steigerung gegenüber der Kontrolle) bzw. unter 80 werden als Nachweis eines stimulatorischen bzw. suppressorischen Effektes angesehen. Antikörpertiter-Differenzen von >+1 bzw. <-1 verdeutlichen den stimulatorischen bzw. suppressorischen Effekt der Substanzen auf die humorale Immunantwort. 2. Untersuchungen zur immunstimulierenden Wirkung • 2.1 Plaque-Test zum Nachweis von SE-spezifischen IgM- und IgG-PBZ Zur Prüfung immunstimulierender Effekte wurde u. a. auch der Einfluß von Verbindungen der allgemeinen Formel I auf die humorale Immunantwort an Mäusen des Inzuchtstammes CBA und mittels Hämolyse-Plaque-Test (HPT) untersucht. Diese Technik erlaubt die quantitative und getrennte Erfassung IgM- und IgG-Antikörper produzierender Zellen (= Plaque bildende Zellen; PBZ). […]

[10] = 125 µmol/l, mean of three experiments
[11] = 125 µmol/l, n.s. = nicht signifikant
[12] = 250 µmol/l, mean of three experiments

**Q.** With `O=c1[nH]c2ccccc2c(=O)n1CCS` [Beispiel 1, 3-(2-Mercaptoethyl)-chinazolin-2,4(1H,3H)-dion] as the compound, how does the “Senkung des Virusertrages im Vergleich zur unbehandelten Kontrolle” value [1, 10] read?
**A.** The value was 0,33 log10 TCID50/0,2 ml.

**Q.** And the “% Hemmung” value [1, 11]?
**A.** Its value is “n. s”.

**Q.** And the “% Hemmung” value [1, 12]?
**A.** Its value is 99%.

**Q.** And the “Senkung des Virusertrages im Vergleich zur unbehandelten Kontrolle” value [1, 12]?
**A.** The value was 1,0 log10 TCID50/0,2 ml.

**Q.** What about the “antivirale Wirkung” value [2] of the same compound?
**A.** Its value is “nicht antiviral wirksam”.

**Q.** What about the “Plaquereduktion in % zur Viruskontrolle auf primären HEZ” value ([3]; 125 µmol/l) of the same compound?
**A.** Its value is 98%.

**Q.** And the “Plaquereduktion in % zur Viruskontrolle auf primären HEZ” value ([3]; 250 µmol/l)?
**A.** The value was 100%.

**Q.** What about the “Plaquereduktion in % zur Viruskontrolle auf primären HEZ” value ([3]; 31,25 µmol/l, 31.25 µM) of the same compound?
**A.** Its value is 85%.

**Q.** And the “Plaquereduktion in % zur Viruskontrolle auf primären HEZ” value ([3]; 62,5 µmol/l, 62.5 µM)?
**A.** Its value is 92%.

**Q.** And the “antivirale Wirkung” value [4]?
**A.** Its value is “nicht antiviral wirksam”.

**Q.** And the “Plaquereduktion in % zur Viruskontrolle auf primären HEZ” value ([5]; 125 µmol/l, mean of two experiments)?
**A.** The value was 15%.

**Q.** What about the “Plaquereduktion in % zur Viruskontrolle auf primären HEZ” value ([5]; 250 µmol/l, footnote x = keine signifikante Wirkung) of the same compound?
**A.** The value was 45 ^x %.

**Q.** And the “Plaquereduktion in % zur Viruskontrolle auf primären HEZ” value ([5]; 62,5 µmol/l, mean of two experiments, 62.5 µM)?
**A.** The value was 0%.

**Q.** What about the Zellverträglichkeit ([6]; 125 µmol/l in maintenance medium) of the same compound?
**A.** The Zellverträglichkeit was 0̸.

**Q.** What about the Zellverträglichkeit ([6]; 250 µmol/l in maintenance medium) of the same compound?
**A.** The Zellverträglichkeit was 0̸.

**Q.** And the Zellverträglichkeit ([6]; 500 µmol/l in maintenance medium)?
**A.** Its Zellverträglichkeit is “++”.

**Q.** What about the Zellverträglichkeit ([6]; 1000 µmol/l in maintenance medium) of the same compound?
**A.** The Zellverträglichkeit was “++++”.

**Q.** And the Zellverträglichkeit ([6]; 62,5 µmol/l in maintenance medium)?
**A.** The Zellverträglichkeit was 0̸.

**Q.** And the “Senkung des Virusertrages im Vergleich zur unbehandelten Kontrolle” value [7, 10]?
**A.** The value was 0,5 log10 TCID50/0,2 ml.

**Q.** What about the “% Hemmung” value [7, 11] of the same compound?
**A.** Its value is “n. s”.

**Q.** And the “% Hemmung” value [7, 12]?
**A.** The value was 99,9%.

**Q.** What about the “Senkung des Virusertrages im Vergleich zur unbehandelten Kontrolle” value [7, 12] of the same compound?
**A.** Its value is 3,0 log10 TCID50/0,2 ml.

**Q.** For `COc1cc2[nH]c(=O)n(CCCS)c(=O)c2cc1OC` [Beispiel 2, 3-(3-Mercaptoprop-1-yl)-6,7-dimethoxychinazolin-2,4(1H,3H)-dion], which “% Hemmung” value ([8]; Beispielreihe 5a, 125 µmol/l) is on record?
**A.** Its value is 99,0%.

**Q.** And the “Senkung des Virusertrages im Vergleich zur unbehandelten Kontrolle” value ([8]; Beispielreihe 5a, 125 µmol/l)?
**A.** Its value is 2,0 log10 TCID50/0,2 ml.

**Q.** And the “% Hemmung” value ([8]; Beispielreihe 5a, 250 µmol/l)?
**A.** The value was 99,99%.

**Q.** What about the “Senkung des Virusertrages im Vergleich zur unbehandelten Kontrolle” value ([8]; Beispielreihe 5a, 250 µmol/l) of the same compound?
**A.** The value was 6,17 log10 TCID50/0,2 ml.

**Q.** What about the “Senkung des Virusertrages im Vergleich zur unbehandelten Kontrolle” value ([8]; Beispielreihe 5a, 31,25 µmol/l) of the same compound?
**A.** Its value is 0 log10 TCID50/0,2 ml.

**Q.** And the “Senkung des Virusertrages im Vergleich zur unbehandelten Kontrolle” value ([8]; Beispielreihe 5a, 62,5 µmol/l)?
**A.** Its value is 0,5 log10 TCID50/0,2 ml.

**Q.** And the “% Hemmung” value ([8]; Beispielreihe 5a, 62,5 µmol/l, n. s. = nicht signifikant)?
**A.** The value was “n. s”.

**Q.** What about the “Kontaktdermatitis (Kontrolle: 100) 24-Stunden-Reaktion” value [9] of the same compound?
**A.** Its value is 180%.
